Source: ChEMBL document CHEMBL4052617, “Antibacterial activity of N-methylbenzofuro[3,2-b]quinoline and N-methylbenzoindolo[3,2-b]-quinoline derivatives and study of their mode of action” (2017)
The source made the active and inactive calls. The calls are words filed in the database; no cut-off is given here.

What was measured:
Enterococcus faecium [1] = assay: Antibacterial activity against vancomycin-resistant Enterococcus faecium ATCC 700221 after 18 hrs by brain heart infusion broth microdilution method; assay type: functional; conditions: ATCC 700221, 18 h
Escherichia coli [2] = assay: Antibacterial activity against Escherichia coli ATCC 25922 after 18 hrs by Mueller-Hinton broth microdilution method; assay type: functional; conditions: ATCC 25922, 18 h
Enterococcus faecium [3] = assay: Antibacterial activity against antibiotic-susceptile Enterococcus faecium ATCC 49624 after 18 hrs by brain heart infusion broth microdilution method; assay type: functional; conditions: ATCC 49624, 18 h
Staphylococcus aureus [4] = assay: Antibacterial activity against methicillin-resistant Staphylococcus aureus ATCC BAA41 after 18 hrs by cation adjusted Mueller-Hinton broth microdilution method; assay type: functional; conditions: ATCC BAA41, 18 h
Klebsiella pneumoniae = assay: Antibacterial activity against Klebsiella pneumoniae ATCC BAA2470 expressing NDM-1 beta-lactamase after 18 hrs by Mueller-Hinton broth microdilution method; assay type: functional; conditions: ATCC BAA2470, 18 h
Bacillus subtilis = assay: Antibacterial activity against Bacillus subtilis 168 after 18 hrs by Mueller-Hinton broth microdilution method; assay type: functional; conditions: subsp. subtilis str. 168, 18 h
Pseudomonas aeruginosa = assay: Antibacterial activity against multidrug-resistant Pseudomonas aeruginosa ATCC BAA2108 after 18 hrs by Mueller-Hinton broth microdilution method; assay type: functional; conditions: ATCC BAA2108, 18 h
Escherichia coli [5] = assay: Antibacterial activity against Escherichia coli ATCC […] expressing NDM-1 beta-lactamase after 18 hrs by Mueller-Hinton broth microdilution method; assay type: functional
Staphylococcus aureus [6] = assay: Antibacterial activity against Staphylococcus aureus ATCC 29213 after 18 hrs by cation adjusted Mueller-Hinton broth microdilution method; assay type: functional; conditions: ATCC 29213, 18 h
[7] = target: T1, Cell division protein FtsZ (Staphylococcus aureus) (UniProt P0A031); assay: (§1) Inhibition of recombinant N-terminal His6-tagged Staphylococcus aureus FtzS expressed in Escherichia coli BL21 (DE3) cells assessed as reduction in protein protofilament bundling at 8 ug/ml preincubated for 10 mins followed by GTP addition after 15 mins by phosphotungstic acid staining based transmission electron microscopic method
T1 sequence (whole entry): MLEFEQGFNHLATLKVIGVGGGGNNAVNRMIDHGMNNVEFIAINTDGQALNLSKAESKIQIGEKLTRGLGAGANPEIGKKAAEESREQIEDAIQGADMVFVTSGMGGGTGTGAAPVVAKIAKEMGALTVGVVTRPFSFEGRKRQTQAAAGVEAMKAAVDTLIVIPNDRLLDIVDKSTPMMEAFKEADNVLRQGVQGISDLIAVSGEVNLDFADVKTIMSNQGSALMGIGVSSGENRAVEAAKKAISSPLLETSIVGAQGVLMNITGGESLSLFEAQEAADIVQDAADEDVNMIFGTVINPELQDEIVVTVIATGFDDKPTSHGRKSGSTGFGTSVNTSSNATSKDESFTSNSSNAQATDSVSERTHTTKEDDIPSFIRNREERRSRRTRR

[8] = target: T1, Cell division protein FtsZ (Staphylococcus aureus); assay: as §1, with “polymer thickness” for “protofilament bundling”
[9] = target: T1, Cell division protein FtsZ (Staphylococcus aureus); assay: Inhibition of recombinant N-terminal His6-tagged Staphylococcus aureus ATCC 29213 FtzS polymerization expressed in Escherichia coli BL21 (DE3) cells at 16 ug/ml in presence of GTP by fluorescence spectrometry method

SMILES | MIC (Enterococcus faecium [1]) | MIC (Escherichia coli [2]) | MIC (Enterococcus faecium [3]) | MIC (Staphylococcus aureus [4]) | MIC (Klebsiella pneumoniae) | MIC (Bacillus subtilis) | MIC (Pseudomonas aeruginosa) | MIC (Escherichia coli [5]) | MIC (Staphylococcus aureus [6]) | inhibition [7] | inhibition [8] | inhibition [9]
C[n+]1c2ccccc2c(Nc2ccc(F)cc2)c2oc3ccccc3c21.[I-] | 8 µg/mL | 12 µg/mL | 8 µg/mL | 6 µg/mL | > 64 µg/mL | 6 µg/mL | > 64 µg/mL | 12 µg/mL | 6 µg/mL |  |  | 
C[n+]1c2ccccc2c(Nc2cccc(F)c2)c2[nH]c3ccccc3c21.[I-] | 6 µg/mL | 12 µg/mL | 6 µg/mL | 6 µg/mL | > 64 µg/mL | 6 µg/mL | > 64 µg/mL | 12 µg/mL | 6 µg/mL |  |  | 
C[n+]1c2ccccc2c(Nc2ccc(Cl)cc2)c2[nH]c3ccccc3c21.[I-] | 6 µg/mL | 8 µg/mL | 6 µg/mL | 4 µg/mL | 64 µg/mL | 4 µg/mL | 64 µg/mL | 8 µg/mL | 4 µg/mL |  |  | 
COc1cccc(Nc2c3ccccc3[n+](C)c3c2oc2ccccc23)c1.[I-] | 8 µg/mL | 12 µg/mL | 8 µg/mL | 6 µg/mL | > 64 µg/mL | 6 µg/mL | > 64 µg/mL | 12 µg/mL | 6 µg/mL |  |  | 
Cc1ccc(Nc2c3ccccc3[n+](C)c3c2oc2ccccc23)cc1C.[I-] | 8 µg/mL | 12 µg/mL | 8 µg/mL | 6 µg/mL | > 64 µg/mL | 6 µg/mL | > 64 µg/mL | 12 µg/mL | 6 µg/mL |  |  | 
COc1ccccc1Nc1c2ccccc2[n+](C)c2c1oc1ccccc12.[I-] | 8 µg/mL | 12 µg/mL | 8 µg/mL | 6 µg/mL | > 64 µg/mL | 6 µg/mL | > 64 µg/mL | 12 µg/mL | 6 µg/mL |  |  | 
C[n+]1c2ccccc2c(Nc2ccc(F)cc2)c2[nH]c3ccccc3c21.[I-] | 8 µg/mL | 8 µg/mL | 8 µg/mL | 4 µg/mL | 64 µg/mL | 4 µg/mL | 64 µg/mL | 8 µg/mL | 4 µg/mL |  |  | 
Cc1cc(C)cc(Nc2c3ccccc3[n+](C)c3c2oc2ccccc23)c1.[I-] | 8 µg/mL | 12 µg/mL | 8 µg/mL | 6 µg/mL | > 64 µg/mL | 6 µg/mL | > 64 µg/mL | 12 µg/mL | 6 µg/mL |  |  | 
COc1ccc(Nc2c3ccccc3[n+](C)c3c2oc2ccccc23)cc1.[I-] | 6 µg/mL | 8 µg/mL | 6 µg/mL | 4 µg/mL | 64 µg/mL | 4 µg/mL | 64 µg/mL | 8 µg/mL | 4 µg/mL | Active | Active | Active
C[n+]1c2ccccc2c(Nc2ccc(F)cc2F)c2[nH]c3ccccc3c21.[I-] | 8 µg/mL | 8 µg/mL | 8 µg/mL | 4 µg/mL | 64 µg/mL | 4 µg/mL | 64 µg/mL | 8 µg/mL | 4 µg/mL |  |  | 
C[n+]1c2ccccc2c(Nc2ccc(OC(F)(F)F)cc2)c2[nH]c3ccccc3c21.[I-] | 4 µg/mL | 6 µg/mL | 4 µg/mL | 2 µg/mL | 48 µg/mL | 2 µg/mL | 48 µg/mL | 6 µg/mL | 2 µg/mL |  |  | 
C[n+]1c2ccccc2c(Nc2ccc(F)cc2F)c2oc3ccccc3c21.[I-] | 8 µg/mL | 12 µg/mL | 8 µg/mL | 6 µg/mL | > 64 µg/mL | 6 µg/mL | > 64 µg/mL | 12 µg/mL | 6 µg/mL |  |  | 
CCOc1ccc(Nc2c3ccccc3[n+](C)c3c2[nH]c2ccccc23)cc1.[I-] | 4 µg/mL | 6 µg/mL | 4 µg/mL | 2 µg/mL | 48 µg/mL | 2 µg/mL | 48 µg/mL | 6 µg/mL | 2 µg/mL |  |  | 
